From US8440652B2, “MST1 kinase inhibitors and methods of their use” (Lexicon Pharmaceuticals, Inc., priority 2011, dated 2013)
Read-outs that look alike come from different tables or passages of the source.

Molecular target: T1, MST1 (Homo sapiens, UniProt Q13043)
T1 sequence (Q13043 1-487): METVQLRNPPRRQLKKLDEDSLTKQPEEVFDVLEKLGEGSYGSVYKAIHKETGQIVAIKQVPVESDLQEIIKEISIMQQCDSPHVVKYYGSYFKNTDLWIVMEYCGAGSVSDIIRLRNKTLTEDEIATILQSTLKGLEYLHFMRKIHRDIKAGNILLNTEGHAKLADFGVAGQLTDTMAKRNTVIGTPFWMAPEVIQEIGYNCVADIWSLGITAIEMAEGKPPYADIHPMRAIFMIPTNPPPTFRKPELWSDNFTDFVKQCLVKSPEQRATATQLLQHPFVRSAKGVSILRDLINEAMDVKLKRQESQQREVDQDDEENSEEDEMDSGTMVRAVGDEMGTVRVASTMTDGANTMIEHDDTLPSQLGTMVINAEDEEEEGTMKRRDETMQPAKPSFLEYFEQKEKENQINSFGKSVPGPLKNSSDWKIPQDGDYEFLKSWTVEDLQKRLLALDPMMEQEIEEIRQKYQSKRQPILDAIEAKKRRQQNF
Test: In vitro measurement of MST1 inhibition (Z′-Lyte kinase assay)
Assay type: biochemical

[1] = 1 μM ATP, read-out: IC50 (μM) 1 μM ATP
[2] = 50 μM ATP, read-out: IC50 (μM) 50 μM ATP

Row | SMILES | IC50 [1] [µM] | IC50 [2] [µM]
1 | CN(C)S(=O)(=O)N1CC=C(c2cnc(N)c(-c3ccc4c(c3)CCNC4=O)c2)CC1 [6-amino-N,N-dimethyl-5-(1-oxo-1,2,3,4-tetrahydroisoquinolin-6-yl)-5′,6′-dihydro-[3,4′-bipyridine]-1′(2′H)-sulfonamide] | < 0.15 | < 0.05
2 | CN(C1CC1)S(=O)(=O)c1ccc(-c2cnc(N)c(-c3ccc4c(=O)[nH]ccc4c3)n2)cc1 [4-(5-amino-6-(1-oxo-1,2-dihydroisoquinolin-6-yl)pyrazin-2-yl)-N-cyclopropyl-N-methylbenzenesulfonamide] | < 0.01 | < 0.01
3 | CN(C)C(=O)COc1ccc(-c2cnc(N)c(-c3ccc(C(N)=O)cc3)c2)cc1 [4-(2-amino-5-(4-(2-(dimethylamino)-2-oxoethoxy)phenyl)pyridin-3-yl)benzamide] | – | < 0.15
4 | CCN(C)S(=O)(=O)c1ccc(-c2cnc(N)c(-c3ccc4c(c3)CCNC4=O)n2)cc1C [4-(5-amino-6-(1-oxo-1,2,3,4-tetrahydroisoquinolin-6-yl)pyrazin-2-yl)-N-ethyl-N,2-dimethylbenzenesulfonamide] | < 0.01 | < 0.01
5 | CC(C)(C#N)c1ccc(-c2cnc(N)c(-c3ccc4c(c3)CCNC4=O)c2)cn1 [2-(6′-amino-5′-(1-oxo-1,2,3,4-tetrahydroisoquinolin-6-yl)-[3,3′-bipyridin]-6-yl)-2-methylpropanenitrile] | < 0.05 | < 0.05
6 | C[C@H]1COc2cc(-c3cc(-c4ccc(S(=O)(=O)N(C)C5CC5)cc4)cnc3N)ccc2C(=O)N1 [(S)-4-(6-amino-5-(3-methyl-5-oxo-2,3,4,5-tetrahydrobenzo[f][1,4]oxazepin-8-yl)pyridin-3-yl)-N-cyclopropyl-N-methylbenzenesulfonamide] | < 0.05 | < 0.01
7 | CCN(C)S(=O)(=O)c1ccc(-c2cnc(N)c(-c3ccc4c(O)nccc4c3)n2)cc1 [4-(5-amino-6-(1-hydroxyisoquinolin-6-yl)pyrazin-2-yl)-N-ethyl-N-methylbenzenesulfonamide] | < 0.01 | < 0.01
8 | NC(=O)c1ccc(-c2cc(-c3ccc(C(=O)c4ccccc4)cc3)cnc2N)cc1 [4-(2-amino-5-(4-benzoylphenyl)pyridin-3-yl)benzamide] | – | < 0.15
9 | CN(C1CC1)S(=O)(=O)c1ccc(-c2cnc(N)c(-c3ccc4c(c3)OC[C@@H](COCc3ccccc3)NC4=O)c2)cc1 [(R)-4-(6-amino-5-(3-((benzyloxy)methyl)-5-oxo-2,3,4,5-tetrahydrobenzo[f][1,4]oxazepin-8-yl)pyridin-3-yl)-N-cyclopropyl-N-methylbenzenesulfonamide] | < 0.15 | < 0.01
10 | Nc1ncc(-c2ccc(S(=O)(=O)NC3CC3)cc2)nc1-c1ccc2c(c1)NCCNC2=O [4-(5-amino-6-(5-oxo-2,3,4,5-tetrahydro-1H-benzo[e][1,4]diazepin-8-yl)pyrazin-2-yl)-N-cyclopropylbenzenesulfonamide] | < 0.01 | < 0.01
11 | Nc1ncc(-c2ccc(F)cc2)nc1-c1ccc2c(c1)C1(CC1)CNC2=O [6′-(3-amino-6-(4-fluorophenyl)pyrazin-2-yl)-2′,3′-dihydro-1′H-spiro[cyclopropane-1,4′-isoquinolin]-1′-one] | < 0.15 | < 0.01
12 | CC1(C)C(=O)NC(=O)c2ccc(-c3nc(-c4ccc(S(=O)(=O)NC5CC5)cc4)cnc3N)cc21 [4-(5-amino-6-(4,4-dimethyl-1,3-dioxo-1,2,3,4-tetrahydroisoquinolin-6-yl)pyrazin-2-yl)-N-cyclopropylbenzenesulfonamide] | < 0.15 | < 0.15
13 | Nc1ncc(-c2ccc(S(=O)(=O)NC3CC3)cc2)cc1-c1ccc2c(c1)CCCNC2=O [4-(6-amino-5-(1-oxo-2,3,4,5-tetrahydro-1H-benzo[c]azepin-7-yl)pyridin-3-yl)-N-cyclopropylbenzenesulfonamide] | < 0.01 | < 0.01

Results, then the compound that gave them:

Row | IC50 [1] [µM] | IC50 [2] [µM] | SMILES
14 | < 0.05 | < 0.01 | N#Cc1ccc(-c2cnc(N)c(-c3cc4c(cn3)C(=O)NCC4)c2)cc1 [4-(6-amino-5-(8-oxo-5,6,7,8-tetrahydro-2,7-naphthyridin-3-yl)pyridin-3-yl)benzonitrile]
15 | < 0.01 | < 0.01 | Nc1ncc(-c2ccc(S(=O)(=O)NC3CC3)cc2)cc1-c1ccc2c(c1)C1(CC1)CNC2=O [4-(6-amino-5-(1′-oxo-2′,3′-dihydro-1′H-spiro[cyclopropane-1,4′-isoquinolin]-6′-yl)pyridin-3-yl)-N-cyclopropylbenzenesulfonamide]
16 | < 0.01 | < 0.01 | CN(C1CC1)S(=O)(=O)c1ccc(-c2cnc(N)c(-c3ccc4c(c3)CCNC4=O)n2)cc1F [4-(5-amino-6-(1-oxo-1,2,3,4-tetrahydroisoquinolin-6-yl)pyrazin-2-yl)-N-cyclopropyl-2-fluoro-N-methylbenzenesulfonamide]
17 | < 0.05 | < 0.01 | Nc1ncc(-c2ccc(C3(O)CCOCC3)cc2)nc1-c1ccc2c(c1)CCNC2=O [6-(3-amino-6-(4-(4-hydroxytetrahydro-2H-pyran-4-yl)phenyl)pyrazin-2-yl)-3,4-dihydroisoquinolin-1(2H)-one]
18 | – | < 0.05 | Nc1ncc(-c2ccc(S(=O)(=O)NC3CC3)cc2)nc1-c1ncc(-c2ccccc2)[nH]1 [4-(5-amino-6-(5-phenyl-1H-imidazol-2-yl)pyrazin-2-yl)-N-cyclopropylbenzenesulfonamide]
19 | < 0.01 | < 0.01 | [2H]C([2H])([2H])N(C1CC1)S(=O)(=O)c1ccc(-c2cnc(N)c(-c3ccc4c(c3)CCNC4=O)n2)cc1 [4-(5-amino-6-(1-oxo-1,2,3,4-tetrahydroisoquinolin-6-yl)pyrazin-2-yl)-N-cyclopropyl-N-trideuteromethylbenzenesulfonamide]
20 | < 0.01 | < 0.01 | CN(C1CC1)S(=O)(=O)c1ccc(-c2cnc(N)c(-c3ccc4c(c3)OC[C@H](CO)NC4=O)c2)cc1 [(S)-4-(6-amino-5-(3-(hydroxymethyl)-5-oxo-2,3,4,5-tetrahydrobenzo[f][1,4]oxazepin-8-yl)pyridin-3-yl)-N-cyclopropyl-N-methylbenzenesulfonamide]
21 | – | < 0.15 | CCOc1cc(-c2cc(-c3ccc(F)cc3)cnc2N)ccc1C(N)=O [4-(2-amino-5-(4-fluorophenyl)pyridin-3-yl)-2-ethoxybenzamide]
22 | < 0.05 | < 0.05 | NC(=O)c1ccc(-c2cc(-c3ccc(S(=O)(=O)NC4CC4)cc3)cnc2N)cc1 [4-(2-amino-5-(4-(N-cyclopropylsulfamoyl)phenyl)pyridin-3-yl)benzamide]
23 | < 0.01 | < 0.01 | CC1(C)CNC(=O)c2ccc(-c3cc(-c4ccc(S(=O)(=O)NC5CC5)cc4)cnc3N)cc21 [4-(6-amino-5-(4,4-dimethyl-1-oxo-1,2,3,4-tetrahydroisoquinolin-6-yl)pyridin-3-yl)-N-cyclopropylbenzenesulfonamide]
24 | < 0.01 | < 0.01 | C[C@H]1CNc2cc(-c3nc(-c4ccc(S(=O)(=O)N(C)C5CC5)cc4)cnc3N)ccc2C(=O)N1 [(S)-4-(5-amino-6-(3-methyl-5-oxo-2,3,4,5-tetrahydro-1H-benzo[e][1,4]diazepin-8-yl)pyrazin-2-yl)-N-cyclopropyl-N-methylbenzenesulfonamide]
25 | < 0.05 | < 0.01 | CC(=O)N1CC(C)(C)c2cc(-c3nc(-c4ccc(S(=O)(=O)N(C)C5CC5)cc4)cnc3N)ccc21 [4-(6-(1-acetyl-3,3-dimethylindolin-5-yl)-5-aminopyrazin-2-yl)-N-cyclopropyl-N-methylbenzenesulfonamide]
26 | < 0.15 | < 0.05 | CCOC(=O)Cc1ccc(-c2cnc(N)c(-c3ccc4c(c3)CCNC4=O)n2)cc1 [ethyl 2-(4-(5-amino-6-(1-oxo-1,2,3,4-tetrahydroisoquinolin-6-yl)pyrazin-2-yl)phenyl)acetate]
27 | < 0.01 | < 0.01 | CN(C1CC1)S(=O)(=O)c1ccc(-c2cnc(N)c(-c3cc4c(cn3)C(=O)NCC4)n2)cc1 [4-(5-amino-6-(8-oxo-5,6,7,8-tetrahydro-2,7-naphthyridin-3-yl)pyrazin-2-yl)-N-cyclopropyl-N-methylbenzenesulfonamide]
28 | < 0.01 | < 0.01 | CN(C1CC1)S(=O)(=O)c1ccc(-c2cnc(N)c(-c3ccc4c(c3)OCCNC4=O)c2)cc1 [4-(6-amino-5-(5-oxo-2,3,4,5-tetrahydrobenzo[f][1,4]oxazepin-8-yl)pyridin-3-yl)-N-cyclopropyl-N-methylbenzenesulfonamide]
29 | < 0.15 | < 0.15 | N#CC1(c2ccc(-c3cc(-c4ccc5c(c4)CCNC5=O)c(N)nn3)cc2)CC1 [1-(4-(6-amino-5-(1-oxo-1,2,3,4-tetrahydroisoquinolin-6-yl)pyridazin-3-yl)phenyl)cyclopropanecarbonitrile]
30 | < 0.05 | < 0.01 | CC(C)(C#N)c1ccc(-c2cnc(N)c(-c3ccc4c(c3)CCNC4=O)n2)s1 [2-(5-(5-amino-6-(1-oxo-1,2,3,4-tetrahydroisoquinolin-6-yl)pyrazin-2-yl)thiophen-2-yl)-2-methylpropanenitrile]
31 | < 0.01 | < 0.01 | CN(C1CC1)S(=O)(=O)c1ccc(-c2cnc(N)c(-c3ccc4c(c3)CCCNC4=O)c2)cc1 [4-(6-amino-5-(1-oxo-2,3,4,5-tetrahydro-1H-benzo[c]azepin-7-yl)pyridin-3-yl)-N-cyclopropyl-N-methylbenzenesulfonamide]
